Data taken from US9815878B2, “Use of PEDF-derived polypeptides for preventing and/or ameliorating skin aging” (MacKay Memorial Hospital, priority 2012, dated 2017).
No end group written: not given here.

Columns and labels:
[1] = Transdermal delivery of FITC-conjugated 29-mer ointment with or without microneedle patch, fluorescent microscopy of skin; type: in vivo, C57BL/6 mice; details: 24 hours later
Protocol: The Fluorescein (FITC)-conjugated 29-mer peptide was used to investigate the in vivo transdermal delivery of the present PEDF peptides.
First, the dorsal hair of 8-wk-old male C57BL/6 mice were removed using a melted wax/rosin mixture (1:1) under general anesthesia. On the next day, the ointment containing the FITC-conjugated 29-mer peptide (25 μM) was applied onto the dorsal skin of the mice, and then a microneedle patch (3M™ Microchannel Skin System; provided from 3M Singapore) was gently pressed against the dorsal skin so that the microneedles penetrated less than 100 microns into the skin (the FITC-29 mer/MN group). As to the control group (FITC-29 mer/CT), the mice received the ointment without subsequent microneedle treatment. Twenty-four hours later, the skin was harvested, fixed, cryosectioned and examined by fluorescent microscopy.
The H&E stained section in the left panel of FIG. 1 highlights the epidermis and dermis of the specimen. The fluorescence images in the middle and right panels of FIG. 1 illustrate the distribution of FITC-conjugated 29-mer across the skin.

[2] = test system: primary mouse dermal fibroblasts; experiment: Dermal fibroblast proliferation in vitro, BrdU labeling assay; type: cell-based, C57BL/6 mouse; details: 24 hours; for BrdU/Vimentin Labeling Index (%): 50 nM peptide in 1% FBS medium, BrdU 2 hours
Protocol: (§1) Full-thickness skin tissue was obtained from the dorsum of C57BL/6 mouse. The subcutaneous tissue was carefully dissected from the skin and washed three times in sterile phosphate-buffered saline (PBS). The tissue was then cut into small pieces (1-2 mm^3). After being digested with 0.1% dispase at 4° C. overnight, the epidermal layers were removed, and the remaining dermal parts were further digested with 0.1% collagenase I at 37° C. for another 4 hours. The digested cells were then collected by centrifugation (400 g for 5 minutes) and resuspended in high-glucose DMEM supplemented with 10% FBS, 2 mM L-glutamine, and 1% penicillin-streptomycin antibiotic mixture. Cells were seeded onto tissue-culture plates (Falcon Labware; NJ, USA) at 1×10^3 cells/cm^2 and maintained at 37° C. with 5% CO2. After 24 hours, the medium was discarded to remove residual non-adherent cells, and cell culture was replenished with a fresh medium. For passage, near-confluent cells were harvested with 0.25% trypsin/EDTA.
After fixing with 4% paraformaldehyde, cells were exposed to cold methanol for 2 minutes, and then treated with 1 N HCl at room temperature for 1 hour before performing immunofluorescence staining.
BrdU-labeled DNA was detected by polyclonal anti-BrdU antibody and rhodamine-conjugated donkey anti-rabbit IgG. Nuclei were counterstained with Hoechst 33258 (blue).
Primary mouse dermal fibroblasts were isolated and cultured as described in the “Materials and Methods” section. The dermal fibroblast at passage 2 were seeded at gelatin-coated slide in a 6-well plate at a density of 2×10^5 cells per well and cultured in growth medium (DMEM 10% FBS) for 24 hours before being replaced by a basal growth medium with 1% FBS only (control group) or with 1% FBS plus an additional 50 nM of PEDF-derived peptide (i.e., 29-mer, 24-mer, 20-mer, 18-mer, Mo 29-mer, or Mo 20-mer) for 24 hours. For BrdU labeling assay, BrdU (final concentration, 10 μM) was added to the culture for 2 hours. The level of BrdU- and vimentin-double positive cells was expressed as the percentage of BrdU- and vimentin-double positive cells per total vimentin-positive cells (the BrdU/Vimentin Labeling Index), and the results were summarized in Table 2.

MMP-1 = experiment: UVB-induced MMP-1 protein expression in WS-1 cells, western blotting; type: cell-based, human
Protocol: Human skin fibroblast WS-1 cell line was obtained from Food Industry Research and Development Institute (Hsin-Chu, Taiwan). The WS-1 cells were maintained in a 37° C., 5% CO2 humidified incubator as monolayers in culture flasks. They were grown in 10% FBS-DMEM supplemented with 2 mM L-glutamine, 0.1 mM non-essential amino acids, 1% penicillin/streptomycin. For passage, near-confluent cells were sub-cultured by 0.25% trypsin/EDTA.
Skin tissues were homogenized in ice-cold lysis buffer containing 20 mM HEPES (pH 7.4), 150 mM NaCl, 1% SDS, 1 mM ethylenediamine tetraacetic acid (EDTA), 5 mM phenylmethanesulfonyl fluoride (PMSF), and 1 mM dithiothreitol (DTT), 1% Triton X-100, with freshly added protease inhibitor cocktail (Roche, Indianapolis, Ind.). Homogenates were then centrifuged at 12,000 g for 30 minutes at 4° C., and supernatants were then collected and stored at −70° C. Protein contents in lysates were determined using the Bradford assay. Whole cell lysates were prepared using the above lysis buffer. Aliquots of the lysates were then resolved on a SDS-PAGE and then electrotransferred to polyvinylidene difluoride (PVDF) membranes (Millipore, Bedford, Mass., USA) and processed for immunoblot analysis.
Antibodies used in the immunoblot study included anti-type I collagen 1A1 antibody (1:1000 dilution), anti-MMP-1 antibody (1:500 dilution) and anti-β-actin antibody (1:10000 dilution). Proteins of interest were detected using the appropriate IgG-HRP secondary antibody and ECL reagent (Amersham, Arlington Heights, Ill., USA). X-ray films were scanned on a Model GS-700 Imaging Densitometer (Bio-Rad Laboratories, Hercules, Calif.) and analyzed using Labworks 4.0 software. For quantification, blots from at least three independent experiments were used.
WS-1 were seeded on a six-well plate at a density of 1×10^5 cells per well and grown in the 10% FBS-DMEM growth medium for 24 hours and then incubated with 1% FBS-DMEM supplemented with or without 100 nM PEDF peptide for further 24 hours. The cells were washed twice with phosphate buffered saline (PBS) and exposed to UVB radiation covered with PBS. The UVB treatment was conducted in a cell culture hood by using a UVB lamp (model XL-1000B, Spectrolinker™ Inc.) at a final dose of 15 mJ/cm^2 for about 100 seconds. Cell viability was assayed using trapan blue exclusion assay (>95%). After UVB irradiation, PBS was replaced with 1% FBS-DMEM with or without PEDF peptide for further 48 hours and then protein extracts were assayed by western blotting for the expression of MMP-1 protein. Cells that were not subjected to UVB irradiation were used as control (normal). The expression level of MMP-1 was normalized with the expression level in the Vehicle/UVB group (set to 100%), and quantitative results are summarized in Table 6.

MMP-13 = experiment: UVB-induced MMP-13 mRNA expression in primary mouse dermal fibroblasts, RT-PCR; type: cell-based
Protocol: as §1
The total RNA was extracted from cells using the TRIzol (Invitrogen) and treated with RNase-free DNase I (Qiagen, Santa Clarita, Calif.) to remove genomic DNA and then purified with an RNA purification kit (Dynabeads; Invitrogen). 1 μg of total RNA retrieved from primary dermal fibroblast was reverse-transcribed into cDNA by 200 units of expand Reverse-Transcriptase (Roche, Mannheim, Germany) in 20 μl of reaction buffer containing 0.25 μg of random primers and 0.8 mM dNTPs at 42° C. for 1 hour. 2 μl of the cDNA was used for the PCR reaction as templates. PCR was performed in a 30 μl volume containing 15 μl of EconoTaq® PLUS GREEN 2× Master Mix (Lucigen® Corp.), 1 μM of each primer and 2 μl of template DNA. cDNA was synthesized in an 18-22 cycle amplification reaction (denaturation, 20 s, 94° C.; annealing, 30 s, 57° C.; and polymerization, 40 s, 72° C.). The number of cycles for the primer set was chosen to be in the linear range of amplification. The sequences of specific PCR primers were mouse MMP-13 (accession number: NM_008607) sense, […] (SEQ ID NO: 12); antisense, […] (SEQ ID NO: 13); PCR product: 201 bp; and mouse glyceraldehyde 3-phosphate dehydrogenase (GAPDH; accession number: M32599) sense, […] (SEQ ID NO: 14); and anti-sense, […] (SEQ ID NO: 15); PCR product: 223 bp.). The PCR products were electrophoresed in a 2% agarose gel containing ethidium bromide and visualized by UV illumination. The intensities of the PCR products were quantified densitometrically using a FUJI LAS-3000 system and Multi Gauge Ver. 1.01 software (Fujifilm, Tokyo, Japan).
Primary mouse dermal fibroblasts in passage 2 of monolayer cultures were incubated with 1% FBS-DMEM supplemented with or without 100 nM PEDF peptide for 24 hours, and then subjected to UVB irradiation as described above. After UVB irradiation, PBS was replaced with 1% FBS-DMEM with or without PEDF peptide for further 24 hours, and then cellular total RNAs were extracted for subsequent RT-PCR analysis. The expression level of MMP-13 mRNA was normalized with the expression level in the Vehicle/UVB group (set to 100%), and quantitative results are summarized in Table 7.

Question: Which results are given for “FITC-conjugated 29-mer: Fluorescein (FITC)-conjugated 29-mer peptide used to investigate in vivo transdermal delivery (SLGAEQRTESIIHRALYYDLISSPDIHGT; also: FITC conjugated, site not given here)”?
Answer: distribution of fluorescein signal across the skin (delivery to dermis) ([1]; ointment 25 μM on dorsal skin plus microneedle patch (FITC-29 mer/MN)): successfully delivered to the dermis; distribution of fluorescein signal across the skin (delivery to dermis) ([1]; ointment 25 μM on dorsal skin without microneedle treatment (FITC-29 mer/CT)): barely detectable in the dermis

Question: With “SLGAEHRTESVIHRALYYDL [Mo 20-mer, synthetic peptide derived from mouse PEDF]” as the substance, how does the “BrdU/Vimentin Labeling Index (%)” value [2] read?
Answer: 11.3 ± 1.6 %

Question: For “SLGAEHRTESVIHRALYYDLITNPDIHST [Mo 29-mer, synthetic peptide derived from mouse PEDF]”, which “BrdU/Vimentin Labeling Index (%)” value [2] is on record?
Answer: 11.1 ± 2.0 %

Question: What does the source list for “SLGAEQRTESIIHRALYYDLISSP [24-mer, synthetic peptide corresponding to residues 93-116 of human PEDF]”?
Answer: BrdU/Vimentin Labeling Index (%) [2]: 10.1 ± 1.9 %; proliferation relative to control medium ([2]; 50 nM peptide): about 5 fold; MMP-1 Expression Level (%) (MMP-1; 100 nM peptide 24 h before and 48 h after UVB 15 mJ/cm^2, Vehicle/UVB set to 100%): 48 ± 7.2 %; MMP-1 protein level relative to vehicle/UVB group (MMP-1; pre-incubation with peptide, UVB): about half; MMP-13 Expression Level (%) (MMP-13; 100 nM peptide 24 h before and 24 h after UVB 15 mJ/cm^2, mRNA, Vehicle/UVB set to 100%): 16.3 ± 1.5 %; effect on UVB-induced upregulation of MMP-13 (MMP-13; cells pretreated with peptide, UVB): substantially reduced
